Assay results reported in US20150057375A1, “USE OF IMPROVED N-ALKYL PYRROLIDONE SOLVENT” (TAMINCO, priority 2012, published 2015).
Entries after “also recorded” stand apart in the source; their conditions may differ.

How the values were obtained:
[1] = tested on: female Han Wistar rat (embryo and foetus); experiment: Screening study of effects on development of the embryo and foetus after gavage of pregnant rats (similar to OECD 422); assay type: in vivo; conditions: for Bone and cartilage abnormalities and variations / ossification and supernumerary ribs; test item-related effects in the foetuses / Weights of the foetuses: 100 mg/kg body weight/day to dams
Description: The purpose of this study was to detect effects of 4 test items or compounds on the development of the embryo and foetus consequent to exposure of the female Han Wistar rat to the test items from day 6 post coitum (implantation) to day 20 post coitum (the day prior to Caesarean section). Particular attention was given to the foetal skeleton. Each group received one test compound, at a dose level of 100 or 500 mg/kg/day. The results were compared to a negative control group, which were administered distilled water (Aqua dest.).
Each group consisted of 5 mated females, treated by gavage, once daily as follows:
A standard dose volume of […] body weight with a daily adjustment to the actual body weight was used.
The foetuses were removed from the uterus, sexed, weighed individually, examined for gross external abnormalities, sacrificed by a subcutaneous injection of sodium pentobarbital, eviscerated and with the exception of over the paws, the skin was removed and discarded. Carcasses were processed through solutions of ethanol, glacial acetic acid with Alcian blue (for cartilage staining), potassium hydroxide with Alizarin red S (for clearing and staining ossified bone) and aqueous glycerine for preservation and storage. The skeletons were examined and all abnormal findings and variations were recorded.

[2] = EU classification / screening test; cited from earlier work
[3] = tested on: rat; conditions: in vivo; cited from earlier work
[4] = 100 mg/kg body weight/day, gavage
[5] = 500 mg/kg body weight/day to dams
[6] = 500 mg/kg body weight/day, gavage
[7] = 500 mg/kg body weight/day, gavage once daily, day 6-20 post coitum, 5 mated females per group

Row | Weights of the foetuses [1] | Weights of the foetuses (male and female) [1, 5] | Maternal food consumption at start of treatment, days 6-9 p.c. [1, 6] | Bedding in the mouth (females/dams affected) [1, 7] | SMILES | Bone and cartilage abnormalities and variations / ossification and supernumerary ribs; test item-related effects in the foetuses [1] | Maternal mean body weight, body weight gain and corrected body weight gain [1, 4] | Maternal mean food consumption vs control group [1, 4] | Incidence of zygomatic arch fusion in the skull of foetuses [1, 5] | Maternal absolute body weight [1, 6] | Maternal body weight gain [1, 6] | Maternal corrected body weight gain [1, 6] | Reprotoxicity [2] | also measured
1 | not affected |  |  |  | CCCCN1CCCC1=O [N-n-butylpyrrolidone] | no test item-related findings; also recorded: No test item-related effects | No effects | No effects; also recorded: not considered to have been affected |  |  |  |  |  | Bedding in the mouth (females affected) ([1]; 100 mg/kg body weight/day, gavage once daily, day 6-20 post coitum, 5 mated females per group): one female
2 |  | statistically significantly reduced | statistically significantly reduced | all females | CCCN1CCCC1=O [N-n-propylpyrrolidone] |  |  |  | increased incidence | at no time statistically significantly reduced | statistically significantly reduced | reduced without statistical significance |  | Incidence of non-ossified cervical vertebral bodies and supernumerary ribs in foetuses [1, 5]: slightly increased incidence; Mean food consumption compared to the control group ([1]; 500 mg/kg body weight/day, treatment period days 6-21 p.c.): −9.1%; Maternal corrected body weight gain ([1]; 500 mg/kg body weight/day, control group 11.1%): 7.6%; Maternal body weight gain over the treatment period ([1]; 500 mg/kg body weight/day, control group 49%): 36%
3 | not affected |  |  |  | CC(C)CN1CCCC1=O [N-isobutylpyrrolidone] | no test item-related findings; also recorded: No test item-related effects | no effects; also recorded: not affected | no effects |  |  |  |  |  | 

Second part, the molecule before the results:

Row | SMILES | Weights of the foetuses [1] | Weights of the foetuses (male and female) [1, 5] | Maternal food consumption at start of treatment, days 6-9 p.c. [1, 6] | Bedding in the mouth (females/dams affected) [1, 7] | Bone and cartilage abnormalities and variations / ossification and supernumerary ribs; test item-related effects in the foetuses [1] | Maternal mean body weight, body weight gain and corrected body weight gain [1, 4] | Maternal mean food consumption vs control group [1, 4] | Incidence of zygomatic arch fusion in the skull of foetuses [1, 5] | Maternal absolute body weight [1, 6] | Maternal body weight gain [1, 6] | Maternal corrected body weight gain [1, 6] | Reprotoxicity [2] | also measured
4 | CC(C)N1CCCC1=O [N-isopropylpyrrolidone] |  | statistically significantly reduced | decreased slightly | 4 |  |  |  | slightly increased | did not have a clear effect | statistically significantly reduced | reduced but not statistically significantly |  | Incidence of cervical ribs in foetuses [1, 5]: clearly increased incidence; Incompletely ossified cranial structures in foetuses [1, 5]: slightly increased; Number of foetuses per dam [1, 5]: decreased; Post-implantation loss and embryonic resorptions [1, 5]: increased; Maternal mean food consumption after days 6-9 p.c. / overall vs control group [1, 6]: recovered thereafter
5 | CC1CCC(=O)N1C (centres unmarked) [DMP, 1,5-dimethylpyrrolidone] |  |  |  |  |  |  |  |  |  |  |  | suspected as being reprotoxic | 
6 | CN1CCCC1=O [NMP, N-methylpyrrolidone] |  |  |  |  |  |  |  |  |  |  |  | reprotoxic category 2 | Toxicity, LD50 oral rat [3]: 3914 mg/kg
